Test systems include COLO 205; DMS-114; EKVX; HCC 2998; HCT-15; HOP-92; HT-29; M19-MEL; Malme-3M; NCI-H226; NCI-H23; NCI-H460; OVCAR-4; OVCAR-5; OVCAR-8; SF-295; SK-MEL-28; SNB-19; SR; UACC-257.
Holding throughout (test): NCI anticancer screen, dose series, 48 h

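Protocol summary: plate cells (96-well), add compound at 5 concentrations, incubate 48 h, interpolate endpoints linearly. GI50 marks 50% less growth.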 Active and inactive are the calls of the source. Rule as the data show it: active = GI50 up to about 1.1 µM and inactive = higher.

Regarding `Cc1ccccc1-n1c(=O)sc2c(=O)n(-c3ccccc3)c(=S)[nH]c21`, the GI50 was > 100 µM (inactive) in the assay with COLO 205; 56.2 µM (inactive) with DMS-114; > 100 µM (inactive) with EKVX; > 100 µM (inactive) with HCC 2998; greater than 100 µM with HCT-15; > 100 µM (inactive) in the assay with HOP-92. The GI50 in the assay on HT-29, in the assay with M19-MEL, in the assay with Malme-3M, in the assay with NCI-H226, in the assay on NCI-H23 and with NCI-H460 was > 100 µM (inactive) throughout. For the same compound, the GI50 in the assay with OVCAR-4 was > 100 µM (inactive); in the assay with OVCAR-5, 95.5 µM (inactive); with OVCAR-8 it was > 100 µM (inactive); in the assay with SF-295, > 100 µM (inactive); with SK-MEL-28 it was > 100 µM (inactive); in the assay with SNB-19 it was > 100 µM (inactive). Also, the GI50 in the assay with SR and in the assay on UACC-257 was > 100 µM (inactive) each time.
On to `O=C(CSSCC(=O)OCCS(=O)(=O)Nc1ccc(Br)cc1)OCCS(=O)(=O)Nc1ccc(Br)cc1`, for which the GI50 was 11.6 µM (inactive) in the assay with COLO 205; 4.26 µM (inactive) in the assay with DMS-114; 26.5 µM (inactive) in the assay with EKVX; 7.8 µM (inactive) in the assay with HCC 2998; 14.5 µM with HCT-15; 13.1 µM (inactive) in the assay with HOP-92. Also, the GI50 was 4.1 µM (inactive) in the assay with HT-29; 15.1 µM (inactive) in the assay on M19-MEL; 3.8 µM (inactive) in the assay with Malme-3M; 11.4 µM (inactive) in the assay with NCI-H23; 14.5 µM (inactive) in the assay with NCI-H460; 8.75 µM (inactive) in the assay with OVCAR-4. The GI50 was 13.9 µM (inactive) with OVCAR-5; 10.4 µM (inactive) with OVCAR-8; 12.2 µM (inactive) in the assay with SF-295; 21.7 µM (inactive) in the assay with SK-MEL-28; 32.8 µM (inactive) in the assay on SNB-19; 9.46 µM (inactive) in the assay on UACC-257.
In the case of `COC(=O)C(=O)C(C(=O)C(=O)Nc1ccc(OC)cc1[N+](=O)[O-])c1nc2ccc([N+](=O)[O-])cc2nc1O` (stereo not given), the GI50 with COLO 205 is > 100 µM (inactive); in the assay with DMS-114 it was > 100 µM (inactive); in the assay on EKVX, > 100 µM (inactive); with HCC 2998, > 100 µM (inactive); in the assay with HCT-15, greater than 100 µM; in the assay with HOP-92, > 100 µM (inactive). Also, the GI50 in the assay with HT-29, with M19-MEL, in the assay with Malme-3M, with NCI-H226, in the assay with NCI-H23 and with NCI-H460 was > 100 µM (inactive) throughout. Moreover, the GI50 with OVCAR-4, in the assay with OVCAR-5, in the assay on OVCAR-8, with SF-295, with SNB-19 and with SR was > 100 µM (inactive) in each case. In addition, the GI50 in the assay with UACC-257 is > 100 µM (inactive).
For the compound `NC(=O)C12C3C4C1C1C2C3C41C(N)=O` (stereo not given), the GI50 in the assay with COLO 205 is > 100 µM (inactive); with DMS-114, > 100 µM (inactive); with EKVX, > 100 µM (inactive); with HCC 2998, > 100 µM (inactive); with HCT-15, greater than 100 µM; in the assay on HOP-92 it was > 100 µM (inactive). For the same compound, the GI50 in the assay with HT-29, in the assay on M19-MEL, with NCI-H226, in the assay on NCI-H23, in the assay on NCI-H460 and in the assay on OVCAR-4 was > 100 µM (inactive) throughout. Also, the GI50 in the assay with OVCAR-5, in the assay with OVCAR-8, with SF-295, with SK-MEL-28, in the assay on SNB-19 and in the assay with UACC-257 was > 100 µM (inactive) each time.
For the compound `COC(=O)C1=C(C(=O)OC)C23C=CC=CC24C(C(=O)OC)=C(C(=O)OC)C4C1C3` (stereo not given), the GI50 in the assay on COLO 205 was > 100 µM (inactive); in the assay on DMS-114, 88.7 µM (inactive); with EKVX, > 100 µM (inactive); in the assay with HCC 2998, > 100 µM (inactive); in the assay with HCT-15, 59.8 µM; with HOP-92, > 100 µM (inactive). In addition, the GI50 in the assay on HT-29, in the assay with M19-MEL, in the assay on Malme-3M, with NCI-H23, in the assay on NCI-H460 and in the assay with OVCAR-4 was > 100 µM (inactive) each time. The GI50 with OVCAR-5 is > 100 µM (inactive); in the assay on OVCAR-8, > 100 µM (inactive); in the assay with SF-295 it was > 100 µM (inactive); in the assay with SK-MEL-28 it was > 100 µM (inactive); in the assay on SNB-19, > 100 µM (inactive); in the assay with UACC-257 it was 50.2 µM (inactive).
In the case of `CCOC(=O)/C(C#N)=C\Sc1ccccc1`, the GI50 was 20.1 µM (inactive) in the assay on COLO 205; 13.6 µM (inactive) with DMS-114; 27.2 µM (inactive) with EKVX; 37.2 µM (inactive) in the assay with HOP-92; 26 µM (inactive) in the assay on HT-29; 22 µM (inactive) in the assay on M19-MEL. Further, the GI50 with NCI-H226 is 16.7 µM (inactive); in the assay with NCI-H23 it was 28.3 µM (inactive); with NCI-H460 it was 26.4 µM (inactive); with OVCAR-4 it was 26.7 µM (inactive); in the assay on OVCAR-5, 24.7 µM (inactive); in the assay with OVCAR-8 it was 13.7 µM (inactive). Besides, the GI50 with SF-295 was 20 µM (inactive); in the assay with SK-MEL-28, 14.7 µM (inactive); in the assay on SNB-19, 33.5 µM (inactive); with SR, 4.71 µM (inactive); in the assay with UACC-257, 24.7 µM (inactive).
With `COc1cc(/C=N/N=C(\N)NO)cc(Cl)c1O`, the GI50 in the assay on COLO 205 is > 100 µM (inactive); with DMS-114 it was 34.2 µM (inactive); in the assay on EKVX, 30.9 µM (inactive); in the assay with HCC 2998, 45.3 µM (inactive); in the assay on HCT-15 it was 66.8 µM; in the assay on HOP-92 it was 57.8 µM (inactive). The GI50 with HT-29 was > 100 µM (inactive); in the assay with M19-MEL it was 27.8 µM (inactive); in the assay on Malme-3M, 55.2 µM (inactive); in the assay on NCI-H226, 22.8 µM (inactive); in the assay with NCI-H23, 36.9 µM (inactive); in the assay on NCI-H460, 41.6 µM (inactive). Moreover, the GI50 with OVCAR-4 is 76.9 µM (inactive); with OVCAR-5 it was 35.3 µM (inactive); with OVCAR-8, 65.6 µM (inactive); in the assay on SF-295, 58.7 µM (inactive); in the assay on SK-MEL-28, 20.7 µM (inactive); in the assay with SNB-19, > 100 µM (inactive). The GI50 is 40.7 µM (inactive) in the assay on SR and 73.8 µM (inactive) in the assay with UACC-257.
Consider `Cc1cc(O)nc(NNC(C#N)c2ccc(N(C)C)cc2)n1` (stereo not given), for which the GI50 in the assay on COLO 205 was > 100 µM (inactive); in the assay with DMS-114, > 100 µM (inactive); in the assay with HCT-15, greater than 100 µM; in the assay on HOP-92, > 100 µM (inactive); with HT-29, > 100 µM (inactive); in the assay on M19-MEL, > 100 µM (inactive). Further, the GI50 in the assay with Malme-3M, in the assay on NCI-H226, in the assay with NCI-H23, with NCI-H460, in the assay on OVCAR-4 and in the assay with OVCAR-5 was > 100 µM (inactive) each time. The GI50 in the assay with OVCAR-8 was > 100 µM (inactive); with SF-295 it was > 100 µM (inactive); in the assay on SK-MEL-28, > 100 µM (inactive); with SR it was 92.9 µM (inactive); in the assay on UACC-257 it was > 100 µM (inactive).
Consider `O=C(O)c1cc2c(s1)C(=O)c1sccc1C2=O`, for which the GI50 with COLO 205 was 17.2 µM (inactive); in the assay with DMS-114, 3.34 µM (inactive); with EKVX, 15.7 µM (inactive); in the assay on HCC 2998, 18.7 µM (inactive); in the assay on HCT-15, 3.93 µM; with HOP-92, 16.3 µM (inactive). The GI50 with HT-29 was 5.64 µM (inactive); in the assay with M19-MEL it was 1.24 µM (inactive); in the assay with Malme-3M, 0.659 µM (active); in the assay on NCI-H226 it was 19.6 µM (inactive); in the assay on NCI-H23, 2.2 µM (inactive); with NCI-H460, 17.3 µM (inactive). Also, the GI50 in the assay with OVCAR-4 is 6.7 µM (inactive); with OVCAR-5 it was 9.91 µM (inactive); with OVCAR-8 it was 4.09 µM (inactive); in the assay on SF-295, 2.26 µM (inactive); in the assay with SK-MEL-28 it was 1.9 µM (inactive); in the assay on SNB-19, 5.48 µM (inactive). The GI50 in the assay on SR is 2.81 µM (inactive); with UACC-257 it was 3.51 µM (inactive).
Consider `O=C1c2ccc(O)c(O)c2C(=O)c2c(O)ccc(O)c21` [QUINALIZARIN], for which the GI50 was 22.2 µM (inactive) in the assay on COLO 205; 15.9 µM (inactive) in the assay on DMS-114; 26.9 µM (inactive) with EKVX; 23.3 µM (inactive) in the assay on HCC 2998; 25.7 µM in the assay on HCT-15; 25.4 µM (inactive) in the assay with HOP-92. Also, the GI50 is 35.2 µM (inactive) in the assay on HT-29; 33.9 µM (inactive) with M19-MEL; 22 µM (inactive) in the assay on NCI-H226; 31.6 µM (inactive) in the assay with NCI-H23; 21.2 µM (inactive) in the assay on NCI-H460; 2.1 µM (inactive) in the assay on OVCAR-4. Moreover, the GI50 with OVCAR-5 was 28.4 µM (inactive); in the assay with OVCAR-8 it was 28.1 µM (inactive); in the assay on SF-295 it was 27.1 µM (inactive); with SK-MEL-28, 56 µM (inactive); in the assay with SNB-19 it was 29 µM (inactive); with SR it was 26.5 µM (inactive). For the same compound, the GI50 in the assay on UACC-257 is 20.5 µM (inactive).
Consider `O[C@H]1[C@H]2[C@H](O)CCCN2C[C@H]1O` [TRIDOLGOSIR], for which the GI50 was > 100 µM (inactive) in the assay on COLO 205; > 100 µM (inactive) in the assay on DMS-114; > 100 µM (inactive) in the assay on EKVX; > 100 µM (inactive) in the assay with HCC 2998; greater than 100 µM with HCT-15; > 100 µM (inactive) in the assay with HOP-92. The GI50 in the assay with HT-29, in the assay with M19-MEL, with Malme-3M, in the assay with NCI-H226, with NCI-H23 and with NCI-H460 was > 100 µM (inactive) in each case. Moreover, the GI50 in the assay with OVCAR-4, in the assay with OVCAR-5, in the assay on OVCAR-8, in the assay with SF-295, in the assay on SK-MEL-28 and with SNB-19 was > 100 µM (inactive) in each case. In addition, the GI50 with UACC-257 was > 100 µM (inactive).

For the origin of these results see ChEMBL document CHEMBL1201862, “PubChem BioAssay data set” (2004).
